Test results published in patent publication US8957074B2 (Novartis AG, priority 2010, dated 2015).
Read-outs that look alike come from different tables or passages of the source.

How the values were obtained:
CDK4/cyclin D1 = CDK4/cyclin D1 (Homo sapiens (Human), UniProt P11802); experiment: CDK4/cyclin D1 enzymatic activity assay (TR-FRET, phosphorylation of pRb at Ser780); assay type: biochemical
In short: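 Phosphorylation at pRb Ser780, detected by TR-FRET, gave IC50s and kinetics. Enzyme: baculovirus/Sf21-expressed human CDK4/cyclin D1. ATP at 3 μM initiated the reaction; EDTA (pH 8.0) stopped it after 60 min at 22° C.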

[1] = system: phosphorylation of pRb at the Ser780 site in JeKo-1 mantle cell lymphoma cells; experiment: CDK4 cellular assay: ELISA of pRb phosphorylation at Ser780 in JeKo-1 cells; assay type: cell-based
CDK1/cyclin B = CDK1/cyclin B (Homo sapiens (Human), UniProt P06493); experiment: CDK1/cyclin B enzymatic activity assay (IMAP-FP); assay type: biochemical
Sequence of CDK1/cyclin B (P06493 whole entry, species assumed): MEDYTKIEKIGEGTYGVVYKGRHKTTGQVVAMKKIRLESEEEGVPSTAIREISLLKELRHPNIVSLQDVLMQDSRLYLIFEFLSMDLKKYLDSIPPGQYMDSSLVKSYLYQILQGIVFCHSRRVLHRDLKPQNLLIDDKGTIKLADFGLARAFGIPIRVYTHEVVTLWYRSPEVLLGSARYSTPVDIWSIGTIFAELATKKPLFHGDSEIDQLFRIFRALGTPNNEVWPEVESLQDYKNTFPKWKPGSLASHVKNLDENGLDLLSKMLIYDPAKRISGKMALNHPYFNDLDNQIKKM
Sequence of CDK1/cyclin B (P14635 whole entry partner, species assumed): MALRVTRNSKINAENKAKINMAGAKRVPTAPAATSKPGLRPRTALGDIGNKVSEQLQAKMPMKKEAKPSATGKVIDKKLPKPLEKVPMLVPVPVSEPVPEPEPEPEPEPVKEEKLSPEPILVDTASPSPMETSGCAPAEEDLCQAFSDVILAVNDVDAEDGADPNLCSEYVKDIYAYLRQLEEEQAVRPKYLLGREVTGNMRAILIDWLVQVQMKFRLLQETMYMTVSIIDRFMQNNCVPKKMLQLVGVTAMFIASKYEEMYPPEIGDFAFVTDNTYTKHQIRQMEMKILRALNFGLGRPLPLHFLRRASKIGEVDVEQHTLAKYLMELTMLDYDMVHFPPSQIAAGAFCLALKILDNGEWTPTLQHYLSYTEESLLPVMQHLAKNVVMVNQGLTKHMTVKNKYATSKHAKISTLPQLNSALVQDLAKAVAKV
Source text: CDK1/Cyclin B Enzymatic Activity Assay
A 384-well microtiter IMAP-FP™ (Molecular Devices Trade Mark Technology) endpoint assay was used for CDK1/cyclin B kinase activity measurements. The same assay was used for IC50 determination of small molecule inhibitors.

[2] = JeKo-1 cells, p-pRb % inhibition adjusted with total pRb levels, read-out: Normalized cellular ppRb inhibition IC50
[3] = JeKo-1 cells, p-pRb Ser780 ELISA, non-normalized, read-out: Cellular ppRb inhibition IC50
[4] = […] CDK1/cyclin B, 100 nM Tamra Histone-H1 peptide, 20 μM ATP, 120 min at room temperature, read-out: Biochemical CDK1 enzyme IC50
[5] = 0.3 nM CDK4/cyclin D1, 150 nM biotin-pRb (773-924), 3 μM ATP, 60 min at 22° C., read-out: Biochemical CDK4 enzyme IC50
[6] = Homo sapiens, JeKo-1, JeKo-1 cells, p-pRb % inhibition adjusted with total pRb levels, read-out: Normalized cellular ppRb inhibition IC50
[7] = Homo sapiens, JeKo-1, JeKo-1 cells, p-pRb Ser780 ELISA, non-normalized, read-out: Cellular ppRb inhibition IC50
[8] = 0.25 nM CDK1/cyclin B, 100 nM Tamra Histone-H1 peptide, 20 μM ATP, 120 min at room temperature, read-out: Biochemical CDK1 enzyme IC50
[9] = Homo sapiens, JeKo-1, read-out: Cellular ppRb inhibition IC50
[10] = Homo sapiens, JeKo-1, read-out: Normalized cellular ppRb inhibition IC50
[11] = Homo sapiens, JeKo-1 cells, p-pRb % inhibition adjusted with total pRb levels, read-out: Normalized cellular ppRb inhibition IC50
[12] = Homo sapiens, JeKo-1 cells, p-pRb Ser780 ELISA, non-normalized, read-out: Cellular ppRb inhibition IC50

Sequence of CDK4/cyclin D1 (P11802 whole entry): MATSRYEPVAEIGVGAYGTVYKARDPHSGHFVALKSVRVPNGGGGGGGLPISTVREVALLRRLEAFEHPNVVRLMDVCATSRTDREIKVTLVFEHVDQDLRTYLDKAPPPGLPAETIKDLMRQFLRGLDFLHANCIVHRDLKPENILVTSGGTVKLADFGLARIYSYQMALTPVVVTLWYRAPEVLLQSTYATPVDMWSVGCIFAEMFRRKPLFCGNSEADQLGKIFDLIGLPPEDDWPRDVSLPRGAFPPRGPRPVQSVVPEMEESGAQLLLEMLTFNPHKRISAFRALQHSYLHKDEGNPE
Sequence of CDK4/cyclin D1 (P24385 whole entry partner): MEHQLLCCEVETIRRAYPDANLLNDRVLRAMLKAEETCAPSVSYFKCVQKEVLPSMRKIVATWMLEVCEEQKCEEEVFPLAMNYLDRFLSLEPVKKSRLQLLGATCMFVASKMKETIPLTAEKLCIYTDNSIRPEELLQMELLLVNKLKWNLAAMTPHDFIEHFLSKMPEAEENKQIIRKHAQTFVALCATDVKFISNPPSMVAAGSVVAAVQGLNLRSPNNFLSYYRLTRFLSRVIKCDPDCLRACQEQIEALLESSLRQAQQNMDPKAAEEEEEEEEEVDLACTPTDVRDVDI

Compound	IC50 (CDK1/cyclin B; [4])	IC50 (CDK4/cyclin D1; [5])	IC50 [1, 6]	IC50 [1, 7]	IC50 (CDK1/cyclin B; [8])	also measured
CN(C)C(=O)c1cc2cnc(Nc3ccc(C(=O)N4CC5CCC(C4)N5)nn3)nc2n1C1CCCC1 [Example 73, 7-Cyclopentyl-2-[6-(3,8-diaza-bicyclo[3.2.1]octane-3-carbonyl)-pyridazin-3-ylamino]-7H-pyrrolo[2,3-d]pyrimidine-6-carboxylic acid dimethylamide]	> 15000 nM	–	–	–	–	IC50 (CDK4/cyclin D1; read-out: Biochemical CDK4 enzyme IC50, 0.3 nM CDK4/cyclin D1, 150 nM biotin-pRb (773-924), 3 μM ATP, 60 min at 22° C.): 45 to 84 nM; IC50 [1, 2]: 139 to 783 nM; IC50 [1, 3]: 75 to 259 nM
CN(C)C(=O)c1cc2cnc(Nc3ccc(C(=O)N4CC5CCC(C4)O5)cn3)nc2n1C1CCCC1 [Example 74, 7-Cyclopentyl-2-[5-(8-oxa-3-aza-bicyclo[3.2.1]octane-3-carbonyl)-pyridin-2-ylamino]-7H-pyrrolo[2,3-d]pyrimidine-6-carboxylic acid dimethylamide]	–	67 nM	257 nM	151 nM	> 15000 nM	–
CN(C)C(=O)c1cc2cnc(Nc3ccc(C(=O)N4CCC5COCC(C4)N5)cn3)nc2n1C1CCCC1 (stereo not drawn) [Example 75, 7-Cyclopentyl-2-[5-(8-oxa-3,10-diaza-bicyclo[4.3.1]decane-3-carbonyl)-pyridin-2-ylamino]-7H-pyrrolo[2,3-d]pyrimidine-6-carboxylic acid dimethylamide]	–	–	525 nM	81 nM	–	IC50 (CDK4/cyclin D1): 47 nM; IC50 (CDK1/cyclin B): > 15000 nM
CN(C)C(=O)c1cc2cnc(Nc3ccc(C(=O)N4CC5CCC(C4)N5)cn3)nc2n1C1C[C@H]2CC[C@@H]1C2 (stereo partly drawn) [Example 76, 7-(1R,2R,4S)-Bicyclo[2.2.1]hept-2-yl-2-[5-(3,8-diaza-bicyclo[3.2.1]octane-3-carbonyl)-pyridin-2-ylamino]-7H-pyrrolo[2,3-d]pyrimidine-6-carboxylic acid dimethylamide]	–	21 nM	216 nM	160 nM	–	IC50 (CDK1/cyclin B): > 15000 nM
CN(C)C(=O)c1cc2cnc(Nc3ccc(C(=O)N4CC5CC[C@@H](C4)N5)cn3)nc2n1[C@H]1C[C@@H]2CC[C@H]1C2 [Example 77, 7-(1S,2S,4R)-Bicyclo[2.2.1]hept-2-yl-2-[5-(3,8-diaza-bicyclo[3.2.1]octane-3-carbonyl)-pyridin-2-ylamino]-7H-pyrrolo[2,3-d]pyrimidine-6-carboxylic acid dimethylamide]	–	27 nM	225 nM	172 nM	–	IC50 (CDK1/cyclin B): > 15000 nM
CN(C)C(=O)c1cc2cnc(Nc3ccc(N4CC5CC5(N)C4)cn3)nc2n1C1CCCC1 (stereo not drawn) [Example 78, 2-[5-(1-Amino-3-aza-bicyclo[3.1.0]hex-3-yl)-pyridin-2-ylamino]-7-cyclopentyl-7H-pyrrolo[2,3-d]pyrimidine-6-carboxylic acid dimethylamide]	–	76 nM	–	–	> 15000 nM	IC50 [1, 9]: 59 nM
CN(C)C(=O)c1cc2cnc(Nc3ccc(N4CC5CCC(CC4=O)N5)nn3)nc2n1C1CCCC1 (stereo not drawn) [Example 79, 7-Cyclopentyl-2-[6-(4-oxo-3,9-diaza-bicyclo[4.2.1]non-3-yl)pyridazin-3-ylamino]-7H-pyrrolo[2,3-d]pyrimidine-6-carboxylic acid dimethylamide]	–	–	117 nM	30 nM	> 15000 nM	IC50 (CDK4/cyclin D1): 42 nM
CN(C)C(=O)c1cc2cnc(Nc3ccc(N4CC5CCC(N5)C4=O)cn3)nc2n1C1CCCCCC1 (stereo not drawn) [Example 80, 7-Cycloheptyl-2-[5-(2-oxo-3,8-diaza-bicyclo[3.2.1]oct-3-yl)-pyridin-2-ylamino]-7H-pyrrolo[2,3-d]pyrimidine-6-carboxylic acid dimethylamide]	–	–	74 to 474 nM	51 to 320 nM	14000 nM	IC50 (CDK4/cyclin D1): 12 to 14 nM
CN(C)C(=O)c1cc2cnc(Nc3ccc(N4CC5CNCC5C4=O)cn3)nc2n1C1CCCCCC1 (stereo not drawn) [Example 81, 7-Cycloheptyl-2-[5-(1-oxo-hexahydro-pyrrolo[3,4-c]pyrrol-2-yl)-pyridin-2-ylamino]-7H-pyrrolo[2,3-d]pyrimidine-6-carboxylic acid dimethylamide]	–	–	–	–	3810 nM	IC50 (CDK4/cyclin D1): < 5 nM; IC50 [1, 9]: 3 nM; IC50 [1, 10]: 4 nM
CN(C)C(=O)c1cc2cnc(Nc3ccc(N4C[C@@H]5CNC[C@@H]5C4=O)cn3)nc2n1C1CCCCCC1 [Example 82, 7-cycloheptyl-N,N-dimethyl-2-(5-((3aS,6aR)-1-oxohexahydropyrrolo[3,4-c]pyrrol-2(1H)-yl)pyridin-2-ylamino)-7H-pyrrolo[2,3-d]pyrimidine-6-carboxamide]	2660 nM	4 nM	–	–	–	IC50 [1, 11]: 9 nM; IC50 [1, 12]: 5 nM
CN(C)C(=O)c1cc2cnc(Nc3ccc(N4C[C@H]5CNC[C@H]5C4=O)cn3)nc2n1C1CCCCCC1 [Example 83, 7-cycloheptyl-N,N-dimethyl-2-(5-((3aR,6aS)-1-oxohexahydropyrrolo[3,4-c]pyrrol-2(1H)-yl)pyridin-2-ylamino)-7H-pyrrolo[2,3-d]pyrimidine-6-carboxamide]	5320 nM	3 nM	–	–	–	IC50 [1, 11]: 9 nM; IC50 [1, 12]: 5 nM
CN(C)C(=O)c1cc2cnc(Nc3ccc(N4C[C@@H]5CNC[C@@H]5C4=O)cn3)nc2n1C1CCCC1 [Example 85, 7-cyclopentyl-N,N-dimethyl-2-(5-((3aS,6aR)-1-oxohexahydropyrrolo[3,4-c]pyrrol-2(1H)-yl)pyridin-2-ylamino)-7H-pyrrolo[2,3-d]pyrimidine-6-carboxamide]	–	5 to 7 nM	9 to 21 nM	5 to 17 nM	8980 to 11200 nM	–
CN(C)C(=O)c1cc2cnc(Nc3ccc(N4C[C@H]5CNC[C@H]5C4=O)cn3)nc2n1C1CCCC1 [Example 86, 7-cyclopentyl-N,N-dimethyl-2-(5-((3aR,6aS)-1-oxohexahydropyrrolo[3,4-c]pyrrol-2(1H)-yl)pyridin-2-ylamino)-7H-pyrrolo[2,3-d]pyrimidine-6-carboxamide]	20600 nM	5 to 6 nM	13 to 14 nM	8 to 17 nM	–	–
CN1C[C@@H]2CC(=O)N(c3ccc(Nc4ncc5cc(C(=O)N(C)C)n(C6CCCCCC6)c5n4)nc3)C[C@@H]2C1 [Example 93, 7-cycloheptyl-N,N-dimethyl-2-(5-((3aS,7aR)-2-methyl-6-oxotetrahydro-1H-pyrrolo[3,4-c]pyridin-5(6H,7H,7aH)-yl)pyridin-2-ylamino)-7H-pyrrolo[2,3-d]pyrimidine-6-carboxamide]	> 15000 nM	< 5 nM	20 nM	8 nM	–	–
CN(C)C(=O)c1cc2cnc(Nc3ccc(N4CC5(CC6CCC(C5)N6)OC4=O)cn3)nc2n1C1CCCCC1 [Example 94, 7-cyclohexyl-N,N-dimethyl-2-(5-((1R,3r,5S)-2′-oxo-8-azaspiro[bicyclo[3.2.1]octane-3,5′-oxazolidine]-3′-yl)pyridin-2-ylamino)-7H-pyrrolo[2,3-d]pyrimidine-6-carboxamide]	> 15000 nM	41 to 44 nM	34 to 206 nM	25 to 154 nM	–	–
CN(C)C(=O)c1cc2cnc(Nc3ccc(N4C(=O)CN5CCC4CC5)cn3)nc2n1C1CCCC1 [Example 96, 7-cyclopentyl-N,N-dimethyl-2-(5-(3-oxo-1,4-diazabicyclo[3.2.2]nonan-4-yl)pyridin-2-ylamino)-7H-pyrrolo[2,3-d]pyrimidine-6-carboxamide]	10800 nM	15 to 28 nM	–	–	–	IC50 [1, 2]: 73 to 107 nM; IC50 [1, 3]: 31 to 39 nM
CN(C)C(=O)c1cc2cnc(Nc3ccc(N4C(=O)CN5CCC4CC5)cn3)nc2n1C1CCCCCC1 [Example 97, 7-cycloheptyl-N,N-dimethyl-2-(5-(3-oxo-1,4-diazabicyclo[3.2.2]nonan-4-yl)pyridin-2-ylamino)-7H-pyrrolo[2,3-d]pyrimidine-6-carboxamide]	–	51 nM	–	–	> 15000 nM	IC50 [1, 9]: 66 nM; IC50 [1, 10]: 145 nM
CN(C)C(=O)c1cc2cnc(Nc3ccc(N4CCN5CCCC5C4=O)cn3)nc2n1C1CCCCC1 (stereo not drawn) [Example 98, 7-Cyclohexyl-2-[5-(1-oxo-hexahydro-pyrrolo[1,2-a]pyrazin-2-yl)-pyridin-2-ylamino]-7H-pyrrolo[2,3-d]pyrimidine-6-carboxylic acid dimethylamide]	> 15000 nM	16 to 98 nM	–	–	–	IC50 [1, 9]: 136 to 266 nM; IC50 [1, 10]: 291 to 887 nM
CN(C)C(=O)c1cc2cnc(Nc3ccc(N4CCN5CCCCC5C4=O)cn3)nc2n1C1CCCC1 (stereo not drawn) [Example 99, 7-Cyclopentyl-2-[5-(1-oxo-octahydro-pyrido[1,2-a]pyrazin-2-yl)-pyridin-2-ylamino]-7H-pyrrolo[2,3-d]pyrimidine-6-carboxylic acid dimethylamide]	> 15000 nM	71 nM	618 nM	463 nM	–	–
